Legend:
[1] = target: T1, DOR (Homo sapiens, UniProt P41143); assay: [35S]-GTPγS functional assay, DOR; type: biochemical; conditions: for EC50: hDOR-CHO membranes; for Emax: percent of SNC80 full agonist control
T1 construct: expressed in transfected cells; membrane homogenate

[2] = test system: male Swiss Webster mice; assay: Locomotor activity assay; type: in vivo, mouse; conditions: s.c., 30 min session; for average speed by time versus vehicle: Figure 6F–H
Method: This hypolocomotion could result in false positives in assays of evoked antinociception such as WWTI.[115] Thus, a locomotor activity assay was utilized to assess this end point in accordance with previous studies.[28] In brief, the day prior to testing, mice were placed in the open field chamber for acclimation. On the test day, they were injected with compounds 21, 23, NLF, or vehicle and immediately placed back into the open field chamber. Photo beam breaks then recorded the mouse’s locomotion over a 30 min test period.
Six open field activity chambers (Med Associates, St. Albans, VT) were used in the locomotor activity study. Each chamber is located inside a sound-attenuating cubicle (Med Associates) and is equipped with a ventilation system. The interior of the chamber consists of a 27 × 27 cm plexiglass enclosure wired with photobeam cells and connected to a computer console that monitors the activity of the animal.
The day before the experiment, mice were acclimated to the activity chambers for a period of 30 min. On the day of the experiment, mice were administered vehicle or test compound s.c., placed into the activity chambers immediately and activity was monitored and recorded for a period of 30 min.
The primary dependent measures are total (1) distance traveled (cm), (2) ambulatory counts, (3) vertical counts, and (4) average speed (cm/s) within the 30 min session. Data are shown as mean ± SEM. Data were compared using one-way or two-way ANOVA as appropriate and a significant ANOVA was followed by a Dunnet’s post hoc test as appropriate. Statistical significance was defined as p < 0.05.

[3] = test system: male and female Sprague–Dawley rats; conditions: intravenous, FR5 schedule of reinforcement, 2 h sessions
[4] = target: hERG (Kv11.1) (Homo sapiens, UniProt Q12809); assay: Automated patch-clamp hERG inhibition assay in CHO-hERG cells
Chain of hERG (Kv11.1) (Q12809 whole entry): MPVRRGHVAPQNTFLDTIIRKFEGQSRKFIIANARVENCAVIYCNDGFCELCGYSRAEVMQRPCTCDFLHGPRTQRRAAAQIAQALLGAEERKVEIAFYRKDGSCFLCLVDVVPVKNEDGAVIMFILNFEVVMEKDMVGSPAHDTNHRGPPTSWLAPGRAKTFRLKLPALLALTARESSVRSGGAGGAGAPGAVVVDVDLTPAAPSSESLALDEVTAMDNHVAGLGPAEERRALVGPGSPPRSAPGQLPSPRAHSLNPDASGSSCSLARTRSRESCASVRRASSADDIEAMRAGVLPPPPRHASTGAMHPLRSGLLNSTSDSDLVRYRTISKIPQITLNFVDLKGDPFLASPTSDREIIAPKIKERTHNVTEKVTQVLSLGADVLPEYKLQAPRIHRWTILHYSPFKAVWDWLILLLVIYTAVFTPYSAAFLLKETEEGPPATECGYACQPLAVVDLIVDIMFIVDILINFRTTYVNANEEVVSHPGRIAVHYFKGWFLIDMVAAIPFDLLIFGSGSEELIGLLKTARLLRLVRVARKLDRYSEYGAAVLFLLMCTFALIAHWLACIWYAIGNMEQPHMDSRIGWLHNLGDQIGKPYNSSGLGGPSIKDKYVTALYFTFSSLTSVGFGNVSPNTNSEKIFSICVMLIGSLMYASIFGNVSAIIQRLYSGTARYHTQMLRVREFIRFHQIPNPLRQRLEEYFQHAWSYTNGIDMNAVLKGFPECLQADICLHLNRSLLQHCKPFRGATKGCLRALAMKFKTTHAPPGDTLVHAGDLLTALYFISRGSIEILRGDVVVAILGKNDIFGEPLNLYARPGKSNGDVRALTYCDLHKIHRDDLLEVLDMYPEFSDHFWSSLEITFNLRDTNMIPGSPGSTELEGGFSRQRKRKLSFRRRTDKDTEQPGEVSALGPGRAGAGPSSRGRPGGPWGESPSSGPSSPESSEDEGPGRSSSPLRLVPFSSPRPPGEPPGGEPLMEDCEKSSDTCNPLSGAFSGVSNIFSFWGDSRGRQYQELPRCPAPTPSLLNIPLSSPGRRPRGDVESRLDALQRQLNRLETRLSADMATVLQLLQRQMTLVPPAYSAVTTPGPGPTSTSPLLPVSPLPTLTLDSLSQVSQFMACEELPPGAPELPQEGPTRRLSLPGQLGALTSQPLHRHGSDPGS

[5] = target: hERG (Homo sapiens, UniProt Q12809); assay: as above
Chain of hERG (Q12809 whole entry): as above

T1 sequence (P41143 whole entry): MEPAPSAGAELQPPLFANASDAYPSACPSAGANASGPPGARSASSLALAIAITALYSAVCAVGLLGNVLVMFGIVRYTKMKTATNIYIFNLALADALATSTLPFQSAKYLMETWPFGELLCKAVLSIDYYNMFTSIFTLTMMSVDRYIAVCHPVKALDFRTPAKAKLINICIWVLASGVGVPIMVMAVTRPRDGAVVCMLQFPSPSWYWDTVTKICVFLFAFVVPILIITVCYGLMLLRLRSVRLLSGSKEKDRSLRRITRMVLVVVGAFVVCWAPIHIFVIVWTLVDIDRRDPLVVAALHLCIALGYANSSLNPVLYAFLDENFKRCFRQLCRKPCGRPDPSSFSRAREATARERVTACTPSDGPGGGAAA

Row | Structure (SMILES) | EC50 [1] [nM] | Emax [1] [%] | locomotor activity [2] | average speed by time versus vehicle [2] | reinforcing effect (number of infusions earned versus saline) [3] | IC50 [4] [nM] | IC50 [5] [nM]
1 | CN(C(=O)/C=C/c1ccco1)[C@H]1CC[C@@]2(O)[C@H]3Cc4ccc(O)c5c4[C@@]2(CCN3CC2CC2)[C@H]1O5.Cl [Compound 21, 17-Cyclopropylmethyl-3,14β-dihydroxy-4,5α-epoxy-6α-[(2E)-3′-(furan-2″-yl)-N-methylprop-2-enamido]morphinan Hydrochloride] | 1.28 ± 0.28 | > 80 | significant decrease in vertical counts at the largest dose tested | did not result in average speeds significantly different from vehicle at any time point | no dose maintained a significant number of infusions earned above saline | 2510 | –
2 | CN(C(=O)/C=C/c1ccco1)[C@@H]1CC[C@@]2(O)[C@H]3Cc4ccc(O)c5c4[C@@]2(CCN3CC2CC2)[C@H]1O5.Cl [Compound 23, 17-Cyclopropylmethyl-3,14β-dihydroxy-4,5α-epoxy-6β-[(2E)-3′-(furan-2″-yl)-N-methylprop-2-enamido]morphinan Hydrochloride] | 16.4 ± 3.25 | > 80 | dose-dependent decrease in locomotor activity across all end points | significantly different from vehicle | no dose maintained a significant number of infusions earned above saline | – | 1090
